In patent US10689359B2, “Crystals of quinazoline derivative and preparation method therefor” (Xuanzhu Pharma Co., Ltd., priority 2015, dated 2020):

Assays:
[1] = Study on stability of Crystal form I, II and III (influencing factors; character, moisture content, relevant substances by HPLC, XRPD); type: physicochemical
Procedure: The samples were tested for character, relevant substances, moisture content, XRPD pattern, etc. […] The samples were tested for relevant substances, content, character, moisture content, XRPD pattern, etc. During the study, the uncovered experimental samples were kept in cultured dishes in the air. […] During the study, the uncovered experimental samples were kept in cultured dishes in the air. […] With respect to relevant substances, in accordance with High Performance Liquid Chromatography in Appendix V D in Pharmacopoeia of the People's Republic of China (2010), the samples were determined by area normalization method. Instrument: High Performance Liquid Chromatographic Instrument (Agilent 1200/1260 series) Chromatographic column: chromatographic column using octylsilane chemically bonded silica as filler (HC-C8, 4.6×250 mm, 5 μm) Column temperature: 30° C. Detection wavelength: 230 nm Mobile phase: mobile phase consisting of 0.03 mol/L diammonium hydrogen phosphate/0.03 mol/L sodium perchlorate solution-acetonitrile, and reversed-phase gradient elution was employed. Flow rate: 1.0 mL/min Injection volume: 10 μL Method for determining moisture content: the moisture content was determined in accordance with First Method for Determining Moisture Content B (Coulometric Titration) in Appendix VIII M in Pharmacopoeia of the People's Republic of China (2010).

[2] = Evaluation on pharmacokinetics in SD rats, intragastric administration; type: in vivo; conditions: 5 mg/kg
Procedure: An amorphous form of a compound of Formula (I), the preparation method of which could be found in the particular Examples as disclosed in the international patent application (Publication No. WO 2012027960 A1).
Test animal: SD rats, male, weighed 190-250 g, 6 rats for each crystal form, purchased from Beijing Vital River Laboratory Animal Technology Co., Ltd.
Administration route: intragastric administration, at an administration dose of 5 mg/kg, and an administration volume of 10 mL/kg.
Blood collection: whole blood (about 100 μL) was collected from tail vein 10 min, 30 min, 1 h, 2 h, 4 h, 6 h, 8 h, and 24 h after administration, and added to K2EDTA-containing anticoagulation tubes. The whole blood sample was centrifuged for 6 min at 4° C., 8000 rpm in a high speed centrifuge, and plasma was separated. Plasma needed to be prepared within 30 min after blood collection, and stored at −80° C. in a refrigerator.
Plasma sample analysis: the plasma samples were analyzed by protein precipitation: to plasma (20 μL), an internal standard Gefitinib (200 μL, 50 ng/mL acetonitrile solution) was added; the resultant mixture was vortexed at 500 rpm for 5 min, and centrifuged at 4000 rpm for 20 min in a high speed centrifuge; to the supernatant (100 μL), water (100 μL) was added; the resultant mixture was mixed homogeneously under vortexing and analyzed by LC-MS/MS for blood concentration.
Calculation for PK parameters: PK parameters were calculated by using Pharsight Phoenix 6.2 software.

[3] = Comparison of stability between crystal forms and amorphous form, 60° C. uncovered, relevant substances by HPLC; type: physicochemical
Procedure: Instrument: High Performance Liquid Chromatographic Instrument (Agilent 1260 series) Chromatographic column: chromatographic column using octylsilane chemically bonded silica as filler (HC-C8, 4.6×250 mm, 5 μm) Column temperature: 30° C. Detection wavelength: 230 nm Mobile phase: Mobile phase consisting of 0.06 mol/L sodium dihydrogen phosphate/0.06 mol/L sodium perchlorate solution-acetonitrile, and reversed-phase gradient elution was employed. Flow rate: 1.0 mL/min Injection volume: 10 μL

[4] = 10 days, 40° C./RH75% uncovered
[5] = influencing factor condition for 10 days

Question: With C=CC(=O)Nc1cc2c(Nc3ccc(F)c(Cl)c3)ncnc2cc1OCC1CC2(CCN(C)CC2)C1 [Crystal form II, N-(4-((3-chloro-4-fluorophenyl)amino)-7-((7-methyl-7-azaspiro[3.5]nonan-2-yl)methoxy)quinazolin-6-yl)acrylamide] as the molecule, how does the Character ([1]; 0 day) read?
Answer: The Character was “light yellow”.

Question: And the Crystal form ([1]; 0 day)?
Answer: The Crystal form was “Crystal”.

Question: And the Moisture content ([1]; 0 day)?
Answer: The Moisture content was 3.5%.

Question: What about the Relevant substance ([1]; 0 day) of the same molecule?
Answer: Its Relevant substance is 0.37%.

Question: And the Character ([1]; 5 days, 40° C./RH75% covered)?
Answer: Its Character is “light yellow”.

Question: What about the Crystal form ([1]; 5 days, 40° C./RH75% covered) of the same molecule?
Answer: The Crystal form was “the same”.

Question: And the Moisture content ([1]; 5 days, 40° C./RH75% covered)?
Answer: The Moisture content was 3.6%.

Question: What about the Relevant substance ([1]; 5 days, 40° C./RH75% covered) of the same molecule?
Answer: Its Relevant substance is 0.34%.

Question: And the Character ([1]; 5 days, 40° C./RH75% uncovered)?
Answer: The Character was “light yellow”.

Question: What about the Crystal form ([1]; 5 days, 40° C./RH75% uncovered) of the same molecule?
Answer: The Crystal form was “the same”.

Question: And the Moisture content ([1]; 5 days, 40° C./RH75% uncovered)?
Answer: The Moisture content was 3.7%.

Question: And the Relevant substance ([1]; 5 days, 40° C./RH75% uncovered)?
Answer: The Relevant substance was 0.38%.

Question: And the Character ([1]; 5 days, 60° C. covered)?
Answer: The Character was “light yellow”.

Question: And the Crystal form ([1]; 5 days, 60° C. covered)?
Answer: Its Crystal form is “the same”.

Question: What about the Moisture content ([1]; 5 days, 60° C. covered) of the same molecule?
Answer: Its Moisture content is 3.6%.

Question: What about the Relevant substance ([1]; 5 days, 60° C. covered) of the same molecule?
Answer: The Relevant substance was 0.33%.

Question: What about the Character ([1]; 5 days, 60° C. uncovered) of the same molecule?
Answer: The Character was “light yellow”.

Question: And the Crystal form ([1]; 5 days, 60° C. uncovered)?
Answer: The Crystal form was “the same”.

Question: What about the Moisture content ([1]; 5 days, 60° C. uncovered) of the same molecule?
Answer: Its Moisture content is 3.6%.

Question: And the Relevant substance ([1]; 5 days, 60° C. uncovered)?
Answer: Its Relevant substance is 0.35%.

Question: What about the Character ([1]; 5 days, RH-75%) of the same molecule?
Answer: The Character was “light yellow”.

Question: What about the Crystal form ([1]; 5 days, RH-75%) of the same molecule?
Answer: Its Crystal form is “the same”.

Question: And the Moisture content ([1]; 5 days, RH-75%)?
Answer: The Moisture content was 3.6%.

Question: And the Relevant substance ([1]; 5 days, RH-75%)?
Answer: Its Relevant substance is 0.35%.

Question: What about the Character ([1]; 5 days, RH-92.5%) of the same molecule?
Answer: The Character was “light yellow”.

Question: What about the Crystal form ([1]; 5 days, RH-92.5%) of the same molecule?
Answer: Its Crystal form is “the same”.

Question: What about the Moisture content ([1]; 5 days, RH-92.5%) of the same molecule?
Answer: Its Moisture content is 3.7%.

Question: And the Relevant substance ([1]; 5 days, RH-92.5%)?
Answer: The Relevant substance was 0.36%.

Question: What about the Character ([1]; 5 days, light) of the same molecule?
Answer: The Character was “light yellow”.

Question: And the Crystal form ([1]; 5 days, light)?
Answer: Its Crystal form is “the same”.

Question: And the Moisture content ([1]; 5 days, light)?
Answer: Its Moisture content is 3.7%.

Question: And the Relevant substance ([1]; 5 days, light)?
Answer: Its Relevant substance is 0.35%.

Question: What about the Character ([1]; 10 days, 40° C./RH75% covered) of the same molecule?
Answer: The Character was “light yellow”.

Question: What about the Crystal form ([1]; 10 days, 40° C./RH75% covered) of the same molecule?
Answer: The Crystal form was “the same”.

Question: What about the Moisture content ([1]; 10 days, 40° C./RH75% covered) of the same molecule?
Answer: Its Moisture content is 3.6%.

Question: What about the Relevant substance ([1]; 10 days, 40° C./RH75% covered) of the same molecule?
Answer: The Relevant substance was 0.33%.

Question: What about the Character [1, 4] of the same molecule?
Answer: The Character was “light yellow”.

Question: What about the Crystal form [1, 4] of the same molecule?
Answer: Its Crystal form is “the same”.

Question: What about the Moisture content [1, 4] of the same molecule?
Answer: Its Moisture content is 3.8%.

Question: And the Relevant substance [1, 4]?
Answer: The Relevant substance was 0.33%.

Question: What about the Character ([1]; 10 days, 60° C. covered) of the same molecule?
Answer: The Character was “light yellow”.

Question: And the Crystal form ([1]; 10 days, 60° C. covered)?
Answer: Its Crystal form is “the same”.

Question: What about the Moisture content ([1]; 10 days, 60° C. covered) of the same molecule?
Answer: The Moisture content was 3.7%.

Question: What about the Relevant substance ([1]; 10 days, 60° C. covered) of the same molecule?
Answer: The Relevant substance was 0.36%.

Question: What about the Character ([1]; 10 days, 60° C. uncovered) of the same molecule?
Answer: The Character was “light yellow”.

Question: What about the Crystal form ([1]; 10 days, 60° C. uncovered) of the same molecule?
Answer: The Crystal form was “the same”.

Question: And the Moisture content ([1]; 10 days, 60° C. uncovered)?
Answer: The Moisture content was 3.7%.

Question: What about the Relevant substance ([1]; 10 days, 60° C. uncovered) of the same molecule?
Answer: Its Relevant substance is 0.43%.

Question: And the Character ([1]; 10 days, RH-75%)?
Answer: Its Character is “light yellow”.

Question: What about the Crystal form ([1]; 10 days, RH-75%) of the same molecule?
Answer: The Crystal form was “the same”.

Question: What about the Moisture content ([1]; 10 days, RH-75%) of the same molecule?
Answer: Its Moisture content is 3.7%.

Question: What about the Relevant substance ([1]; 10 days, RH-75%) of the same molecule?
Answer: Its Relevant substance is 0.36%.

Question: What about the Character ([1]; 10 days, RH-92.5%) of the same molecule?
Answer: Its Character is “light yellow”.

Question: And the Crystal form ([1]; 10 days, RH-92.5%)?
Answer: Its Crystal form is “the same”.

Question: And the Moisture content ([1]; 10 days, RH-92.5%)?
Answer: The Moisture content was 3.7%.

Question: What about the Relevant substance ([1]; 10 days, RH-92.5%) of the same molecule?
Answer: Its Relevant substance is 0.34%.

Question: What about the Character ([1]; 10 days, light) of the same molecule?
Answer: Its Character is “light yellow”.

Question: What about the Crystal form ([1]; 10 days, light) of the same molecule?
Answer: The Crystal form was “the same”.

Question: And the Moisture content ([1]; 10 days, light)?
Answer: Its Moisture content is 3.7%.

Question: What about the Relevant substance ([1]; 10 days, light) of the same molecule?
Answer: Its Relevant substance is 0.35%.

Question: What about the “Change in Crystal form (XRPD pattern test)” value [1, 5] of the same molecule?
Answer: Its value is “no change”.

Question: What about the Change in impurities [1, 5] of the same molecule?
Answer: The Change in impurities was “no significant change”.

Question: And the “Stability of the samples (conclusion)” value ([1]; influencing factor conditions (high temperature, high moisture, light), 10 days)?
Answer: The value was “relatively stable”.

Question: What about the “Pharmacokinetic properties (conclusion)” value [2] of the same molecule?
Answer: The value was “good pharmacokinetic properties”.

Question: And the AUC0-t ([2]; suspension in water)?
Answer: The AUC0-t was 1536 ng·h/mL.

Question: What about the AUCinf ([2]; suspension in water) of the same molecule?
Answer: The AUCinf was 1591 ng·h/mL.

Question: And the “Cmax (maximum blood concentration)” value ([2]; suspension in water)?
Answer: Its value is 135 ng/mL.

Question: And the “T1/2 (drug elimination half-life)” value ([2]; suspension in water)?
Answer: The value was 4.59 h.

Question: What about the “Tmax (time to maximum blood concentration)” value ([2]; suspension in water) of the same molecule?
Answer: Its value is 3 h.

Question: And the Total relevant substances ([3]; 0 day)?
Answer: The Total relevant substances was 0.64%.

Question: What about the “Change in total relevant substances (conclusion)” value ([3]; 60° C. uncovered, 5 days and 10 days) of the same molecule?
Answer: The value was “little increase in total relevant substances”.

Question: And the Total relevant substances ([3]; 60° C. uncovered-5 days)?
Answer: Its Total relevant substances is 0.66%.

Question: And the Total relevant substances ([3]; 60° C. uncovered-10 days)?
Answer: The Total relevant substances was 0.70%.
